Reference: US20100120715A1, “BETA-LACTAMASE INHIBITORS” (priority 2007, published 2010)
Where two headings read alike, the source gives them in different places.

Key:
Class C P99 AmpC = molecular target: T1, Class C P99 AmpC (Enterobacter cloacae, UniProt P05364); type: biochemical; conditions: purified enzyme; nitrocefin 100 μM, PBS pH 7.0; read-out: P99 AmpC IC50 Range
T1 construct: made in house; host or cells: E. coli BL21(DE3)
Protocol: (§1) Isolation of β-lactamases. For all examples, purified beta-lactamase enzymes were used to measure a compounds' ability to inhibit the Class A ESBL CTXM-15, the Class C P99 AmpC and the Class A carbapenemase KPC-2. […] The enzyme preparations are described herein.
(§2) For the isolation and purification of SHV-5, p99 AmpC, KPC-2 and CTX-M15 β-lactamases, E. coli BL21(DE3) bacterial cells carrying expression plasmids (expressed as native untagged proteins) for the individual β-lactamases were grown in 1 L of Superbroth (Teknova Inc. Hollister, Calif.) supplemented with 100 μg/ml kanamycin and 1×5052 (0.5% glycerol, 0.05% glucose and 0.2% α-lactose) at 35° C. for 18-20 hours. Cells were harvested by centrifugation (4,000×g, 4° C., 20 min), and resuspended in 50 ml of 10 mM HEPES pH 7.5 ( 1/20 of the initial volume). The cells were lysed by sonication (5 pulses of 45 seconds) at 45 W on ice. The lysates were clarified by centrifugation at 10,000×g for 40 minutes at 4° C. Samples were diluted 5-fold in 50 mM sodium acetate pH 5.0, stored overnight at 4° C., after which they were centrifuged at 10,000×g for 30 minutes to clarify, and filtered through 0.45 μm filters. The samples were loaded onto a 5 ml Capto S sepharose cation exchange column (GE Healthcare) pre-equilibrated with 50 mM sodium acetate pH 5.0. The column was washed with 5 column volumes of 50 mM sodium acetate pH 5.0 to wash out unbound protein and a linear gradient of NaCl (0 to 500 mM) was used to elute the protein (over 16 CV) from the column. Fractions were assayed for β-lactamase activity using Centa (Calbiochem, Gibbstown, N.J.) as a reporter β-lactamase substrate for activity in the isolated fractions. Active fractions were pooled, concentrated and further purified by gel filtration chromatography on a Superdex 75 prep grade gel filtration column (GE Healthcare, Piscataway, N.J.) pre-equilibrated in 50 mM Hepes pH 7.5, 150 mM NaCl. Active fractions were pooled concentrated, quantitated by BCA protein determination (Thermo Scientific, Rockford, Ill.), and frozen at −80° C. in 20% glycerol until use.
(§3) β-lactamase Inhibition. To determine the level of inhibition of β-lactamaseenzymes, compounds were diluted in PBS at pH 7.0 to yield concentrations between 100 and 0.005 μM in microtiter plates. An equal volume of diluted enzyme stock was added, and the plates were incubated at 37° C. for 10 min. Nitrocefin solution was then dispensed as substrate into each well at a final concentration of 100 μM, and the plates were immediately read with the kinetic program at 486 nm for 10 min on the SPECTRAMAX® Plus^384 (high-throughput microplate spectrophotometer; Molecular Devices Corp., Sunnyvale, Calif.). Maximum rates of metabolism were then compared to those in control wells (without inhibitors), and percentages of enzyme inhibition were calculated for each concentration of inhibitor. The concentration of inhibitor needed to reduce the initial rate of hydrolysis of substrate by 50% (IC50) was calculated as the residual activity of β-lactamase at 486 nm using the SoftMax Pro 5.0 software (Molecular Devices Corp.).

Class A ESBL SHV-5 = molecular target: T2, Class A ESBL SHV-5 (Klebsiella pneumoniae, UniProt P0A3M1); type: biochemical, E. coli; conditions: nitrocefin 100 μM, PBS pH 7.0, read-out: SHV-5 IC50 Range
T2 construct: made in house; host or cells: E. coli BL21(DE3) for purified enzyme; E. coli cells containing SHV-5 for extracts
T2 sequence (P0A3M1 22-286): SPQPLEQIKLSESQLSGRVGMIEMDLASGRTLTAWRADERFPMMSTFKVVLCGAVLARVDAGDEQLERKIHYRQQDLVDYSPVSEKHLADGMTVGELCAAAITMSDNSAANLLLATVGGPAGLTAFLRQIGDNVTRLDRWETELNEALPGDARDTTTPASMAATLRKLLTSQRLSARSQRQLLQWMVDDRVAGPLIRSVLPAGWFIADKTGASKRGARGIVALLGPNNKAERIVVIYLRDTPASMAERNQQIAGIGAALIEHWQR
Protocol: as §1
For the preparation of SHV-5 extracts, E. coli cells containing SHV-5 were cultured overnight with shaking at a volume of 20 mL. They were further diluted 10-fold and grown to mid-log phase (OD at 600 nm, 0.5-0.8) in Mueller-Hinton II (MH-II) broth at 37° C. The cells were pelleted at 5000 g, washed and resuspended in 2 mL PBS pH 7.0. The β-lactamase was extracted by four cycles of freezing and thawing followed by centrifugation. β-lactamase activity in the extract was measured with the chromogenic cephalosporin nitrocefin. The amount of protein in each β-lactamase preparation was determined by the bicinchoninic acid (BCA) assay.
as §2, §3

[1] = system: K. pneumoniae expressing the Class A carbapenemase KPC-2; test: microbe, parasite or virus in culture; conditions: in the presence of fixed 8 μg/mL Ceftazidime
Text: (§4) To determine the ability of test compounds to potentiate the inhibition of the growth of bacterial strains producing beta-lactamase enzymes, classic cell based screening assays were employed. Four bacteria strains producing beta-lactamase enzymes were used: K. pneumoniae expressing the Class A Extended Spectrum Beta-Lactamase (ESBL) CTX-M-15, E. coli expressing the Class A ESBL SHV-5, E. cloacae expressing the Class C P99+, and K. pneumoniae expressing the Class A carbapenemase KPC-2. In order to evaluate the ability of test compounds to inhibit beta-lactamase activity, Applicants used a modification of the broth microdilution assay. The assay was conducted in Cation Adjusted Mueller Hinton Broth (CAMHB, BD # 212322, BD Diagnostic Systems, Sparks, Md.). Bacteria strains were grown for 3-5 hours in CAMBH broth. All four strains were grown in presence of 50 μg/mL ampicillin to ensure resistance is maintained. In the meantime, test compounds were diluted in DMSO to a 0.1 mg/mL stock. The compounds were added to a microtiter plate and were diluted in 2-fold serial dilutions in CAMHB in a final concentration range of 8 μg/mL to 0.015 μg/ml. An overlay of CAMHB containing a cephalosporin was added to the compounds at a final static concentration of 8 μg/ml. […] Each of these compound plates are made in quadruplicate, one for each bacteria strain. In addition to the titration of test compounds the MICs of a panel of cephalosporins is also tested to ensure the strains are behaving consistently from test to test. Once the test compound and cephalosporin are added the plates can be inoculated. Inocula are conducted according to CLSI broth microdilution method. After inoculation the plates are incubated for 16-20 hours at 37° C. then the Minimal Inhibitory Concentration (MIC) of the test compound is determined visually.

[2] = system: K. pneumoniae expressing the Class A ESBL CTX-M-15; test: microbe, parasite or virus in culture; type: cell-based; conditions: in the presence of fixed 8 μg/mL Ceftazidime
Text: as §4, with “An overlay of CAMHB containing a cephalosporin was added to the compounds at a final static concentration of 8 μg/ml.” left out

Class A ESBL CTXM-15 = molecular target: T3, Class A ESBL CTXM-15 (Escherichia coli, UniProt Q9EXV5); test: β-lactamase enzyme inhibition (nitrocefin hydrolysis), CTXM-15; type: biochemical; conditions: purified enzyme; nitrocefin 100 μM, PBS pH 7.0; read-out: CTXM-15 IC50 Range
T3 construct: made in house; host or cells: E. coli BL21(DE3)
T3 sequence (Q9EXV5 entry or part of it): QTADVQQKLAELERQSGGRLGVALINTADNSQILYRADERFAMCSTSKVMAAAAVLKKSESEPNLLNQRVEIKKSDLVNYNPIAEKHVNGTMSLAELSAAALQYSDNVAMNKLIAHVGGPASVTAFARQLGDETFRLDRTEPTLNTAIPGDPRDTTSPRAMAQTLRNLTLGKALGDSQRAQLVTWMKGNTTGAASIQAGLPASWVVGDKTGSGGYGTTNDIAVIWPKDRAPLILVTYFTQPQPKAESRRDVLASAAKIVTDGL
Protocol: as §1, §2, §3

[3] = molecular target: T4, Class A carbapenemase KPC-2 (Klebsiella pneumoniae, UniProt Q9F663); test: β-lactamase enzyme inhibition (nitrocefin hydrolysis), KPC-2; type: biochemical; conditions: purified enzyme; nitrocefin 100 μM, PBS pH 7.0; read-out: KPC-2 IC50 Range
T4 construct: made in house; host or cells: E. coli BL21(DE3)
T4 sequence (Q9F663 25-293 limits assumed): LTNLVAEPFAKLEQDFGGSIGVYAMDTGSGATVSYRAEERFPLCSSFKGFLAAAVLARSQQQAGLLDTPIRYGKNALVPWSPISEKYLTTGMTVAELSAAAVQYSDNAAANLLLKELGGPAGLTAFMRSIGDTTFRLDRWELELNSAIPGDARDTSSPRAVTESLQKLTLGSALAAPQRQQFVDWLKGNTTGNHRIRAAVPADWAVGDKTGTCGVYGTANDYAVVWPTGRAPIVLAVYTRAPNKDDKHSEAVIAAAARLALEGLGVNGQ
Protocol: as §1, §2, §3

[4] = cellular extracts of E. coli containing SHV-5 (Examples 2-30)
[5] = purified beta-lactamase enzyme (Examples 1 and 31-64)

T1 sequence (P05364 21-381): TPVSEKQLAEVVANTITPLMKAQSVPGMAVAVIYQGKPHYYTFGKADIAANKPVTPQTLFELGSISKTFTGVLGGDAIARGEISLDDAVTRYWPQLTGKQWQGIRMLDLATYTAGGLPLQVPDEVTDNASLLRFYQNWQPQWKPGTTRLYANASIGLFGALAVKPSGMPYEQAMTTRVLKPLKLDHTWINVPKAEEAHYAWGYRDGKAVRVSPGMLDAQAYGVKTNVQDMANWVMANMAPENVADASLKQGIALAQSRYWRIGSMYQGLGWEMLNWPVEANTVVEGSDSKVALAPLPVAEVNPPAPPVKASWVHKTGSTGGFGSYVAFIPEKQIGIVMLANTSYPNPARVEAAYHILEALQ

Compound | IC50 (Class C P99 AmpC) | IC50 (Class A ESBL SHV-5; [4]) | MIC of example compound, K. pneumoniae KPC-2 + 8 μg/mL CAZ [1] | MIC of example compound, K. pneumoniae CTX-M-15 + 8 μg/mL CAZ [2] | IC50 (Class A ESBL CTXM-15) | IC50 [3] | IC50 (Class A ESBL SHV-5; [5])
O=C(Cc1cccc(O)c1)N[C@@H](Cc1cccc(C(=O)O)c1O)B(O)O [Example 3, (1R)-1-(3-hydroxy-phenyl)acetylamino-1-(3-carboxy-2-hydroxy)benzyl-methyl boronic acid] | < 10 nM | < 10 nM | C (C represents an MIC of <1 μg/mL) | C (C represents an MIC of <1 μg/mL) | < 10 nM | – | –
O=C(O)c1cccc(C[C@H](NC(=O)c2cccc3ccccc23)B(O)O)c1O [Example 27, (1R)-1-(1-naphthoylamino)-2-(2-hydroxy-3-carboxyphenyl)ethyl-1-boronic acid] | < 10 nM | 10 to 100 nM | C (C represents an MIC of <1 μg/mL) | – | < 10 nM | < 10 nM | –
Cc1ccccc1C(=O)N[C@@H](Cc1cccc(C(=O)O)c1O)B(O)O [Example 30, (1R)-1-(2-methylbenzoylamino)-2-(2-hydroxy-3-carboxyphenyl)ethyl-1-boronic acid] | < 10 nM | 10 to 100 nM | C (C represents an MIC of <1 μg/mL) | – | < 10 nM | < 10 nM | –
O=C(N[C@@H](Cc1cccc(C(=O)O)c1O)B(O)O)c1ccc(Cl)cc1 [Example 32, (1R)-1-(4-Chloro-benzoyl)-amino-1-(3-carboxy-2-hydroxy)benzyl-methylboronic acid] | < 10 nM | – | C (C represents an MIC of <1 μg/mL) | – | < 10 nM | < 10 nM | 10 to 100 nM
COc1ccc(C(=O)N[C@@H](Cc2cccc(C(=O)O)c2O)B(O)O)cc1 [Example 33, (1R)-1-(4-Methoxybenzoyl)-amino-1-(3-carboxy-2-hydroxy)benzyl-methylboronic acid] | < 10 nM | – | C (C represents an MIC of <1 μg/mL) | – | < 10 nM | < 10 nM | 100 to 1000 nM
O=C(N[C@@H](Cc1cccc(C(=O)O)c1O)B(O)O)c1ccccc1O [Example 35, (1R)-1-(2-hydroxybenzoylamino)-2-(2-hydroxy-3-carboxyphenyl)ethyl-1-boronic acid] | < 10 nM | – | C (C represents an MIC of <1 μg/mL) | – | < 10 nM | 10 to 100 nM | 10 to 100 nM
O=C(CN1C(=O)c2ccccc2C1=O)N[C@@H](Cc1cccc(C(=O)O)c1O)B(O)O [Example 45, (1R)-1-(2-(1,3-dioxoisoindolin-2-yl)acetylamino)-2-(2-hydroxy-3-carboxyphenyl)ethyl-1-boronic acid] | < 10 nM | – | C (C represents an MIC of <1 μg/mL) | – | < 10 nM | < 10 nM | < 10 nM
O=C(N[C@@H](Cc1cccc(C(=O)O)c1O)B(O)O)c1ccncc1 [Example 55, (1R)-1-(Pyridine-4-carbonyl-amino)-2-(2-hydroxy-3-carboxyphenyl)ethyl-1-boronic acid] | < 10 nM | – | – | – | < 10 nM | < 10 nM | 10 to 100 nM
O=C(N[C@@H](Cc1cccc(C(=O)O)c1O)B(O)O)c1cccc(-n2ccnc2)c1 [Example 57, (1R)-1-(3-Imidazol-1-yl-benzoylaminoamino)-2-(2-hydroxy-3-carboxyphenyl)ethyl-1-boronic acid] | < 10 nM | – | C (C represents an MIC of <1 μg/mL) | – | < 10 nM | < 10 nM | < 10 nM
O=C(N[C@@H](Cc1cccc(C(=O)O)c1O)B(O)O)c1cnccn1 [Example 58, (1R)-1-(Pyrazine-2-carbonyl-amino)-2-(2-hydroxy-3-carboxyphenyl)ethyl-1-boronic acid] | 10 to 100 nM | – | C (C represents an MIC of <1 μg/mL) | – | < 10 nM | < 10 nM | 10 to 100 nM
CC(=O)Nc1nc(CC(=O)N[C@@H](Cc2cccc(C(=O)O)c2O)B(O)O)cs1 [Example 63, (1R)-1-((2-Acetylamino-thiazol-4-yl)-acetylamino)-2-(2-hydroxy-3-carboxyphenyl)ethyl-1-boronic acid] | < 10 nM | – | C (C represents an MIC of <1 μg/mL) | – | < 10 nM | < 10 nM | < 10 nM
